22 compounds from US6967196B1, “Sulfonamide compounds and uses thereof” (Bristol-Myers Squibb Company, priority 1999, dated 2005) can be followed below.

pIC50: −log10 of the molar value. Structures can show the parent of a compound that is named as a salt.

For the first assay, the system named is amyloid β production in transfected H4 (human neuroglioma) cells stably expressing APP constructs. Briefly: In vitro cell-based assay of inhibitors of amyloid β production (ELISA). As to conditions: Homo sapiens, 16 h, transfected H4 cells stably expressing APP; approximately 16 hours incubation; amyloid β in medium by ELISA; Table B; read-out: ACTIVITY (IC50, inhibition of amyloid β production). In a few lines: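 Aβ secreted into the medium was read by sandwich ELISA (monoclonal capture for the Aβ C-terminus, polyclonal detection for the N-terminus) and calibrated on a standard curve. Before this, APP-expressing H4 cells were exposed to compound for ~16 h at an initial 10-100 μM, with actives then retested in dose-response.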
For `C[C@H](c1ccccc1CCC(=O)NCc1ccco1)N(c1cc(F)ccc1F)S(=O)(=O)c1ccc(Cl)cc1` [Example 404, 3-[2-((1R)-1-{[(4-chlorophenyl)sulfonyl]-2,5-difluoroanilino}ethyl)phenyl]-N-(2-furylmethyl)propanamide], the pIC50 is 7.00 to 7.30.

Take `C[C@H](c1ccc(F)cc1CN1CCS(=O)(=O)CC1)N(c1cc(F)ccc1F)S(=O)(=O)c1ccc(Cl)cc1` [Example 405]: the pIC50 was 7.00 to 7.30.

Take `C[C@H](c1ccccc1CCC(=O)NC1CCCc2ccccc21)N(c1cc(F)ccc1F)S(=O)(=O)c1ccc(Cl)cc1` (stereo partly drawn) [Example 406, 3-[2-((1R)-1-{[(4-chlorophenyl)sulfonyl]-2,5-difluoroanilino}ethyl)phenyl]-N-(1,2,3,4-tetrahydro-1-naphthalenyl)propanamide]: the pIC50 was 7.00 to 7.30.

On to `O=S(=O)(c1ccc(Cl)cc1)N(Cc1ccccc1OCCC[S+]([O-])C1CCCCC1)c1cc(F)ccc1F` (stereo not shown) [Example 407, 4-chloro-N-{2-[3-(cyclohexylsulfinyl)propoxy]benzyl}-N-(2,5-difluorophenyl)benzenesulfonamide], for which the pIC50 is 7.00 to 7.30.

Regarding `CC(c1ccccc1OCCCNC(=O)c1c(F)cccc1F)N(c1cc(F)ccc1F)S(=O)(=O)c1ccc(Cl)cc1` (stereo not shown) [Example 408, N-{3-[2-(1-{[(4-chlorophenyl)sulfonyl]-2,5-difluoroanilino}ethyl)phenoxy]propyl}-2,6-difluorobenzamide], the pIC50 was 7.00 to 7.30.

As to `CC(c1ccccc1OCCCN(C)S(=O)(=O)c1ccc([N+](=O)[O-])cc1)N(c1cc(F)ccc1F)S(=O)(=O)c1ccc(Cl)cc1` (stereo not shown) [Example 410, 4-chloro-N-(2,5-difluorophenyl)-N-{1-[2-(3-{methyl[(4-nitrophenyl)sulfonyl]amino}propoxy)phenyl]ethyl}benzenesulfonamide], the pIC50 was 7.00 to 7.30.

Turning to `CCN(CCOc1ccccc1C(C)N(c1cc(F)ccc1F)S(=O)(=O)c1ccc(Cl)cc1)C(=O)CSc1ccccc1` (stereo not shown) [Example 417, N-{2-[2-(1-{[(4-chlorophenyl)sulfonyl]-2,5-difluoroanilino}ethyl)phenoxy]ethyl}-N-ethyl-2-(phenylsulfanyl)acetamide], the pIC50 is 7.00 to 7.30.

Regarding `C[C@H](c1ccc(F)cc1CCOC(=O)NCc1ccc(F)cc1)N(c1cc(F)ccc1F)S(=O)(=O)c1ccc(Cl)cc1` [Example 419, 2-[2-((1R)-1-{[(4-chlorophenyl)sulfonyl]-2,5-difluoroanilino}ethyl)-5-fluorophenyl]ethyl 4-fluorobenzylcarbamate], the pIC50 was 7.00 to 7.30.

Regarding `CC(c1ccccc1OCCCN(C)C(=O)CCC1CCCC1)N(c1cc(F)ccc1F)S(=O)(=O)c1ccc(Cl)cc1` (stereo not shown) [Example 428, N-{3-[2-(1-{[(4-chlorophenyl)sulfonyl]-2,5-difluoroanilino}ethyl)phenoxy]propyl}-3-cyclopentyl-N-methylpropanamide], the pIC50 was 7.00 to 7.30.

As for `C[C@H](c1ccc(F)cc1CCOC(=O)NCc1ccco1)N(c1cc(F)ccc1F)S(=O)(=O)c1ccc(Cl)cc1` [Example 435, 2-[2-((1R)-1-{[(4-chlorophenyl)sulfonyl]-2,5-difluoroanilino}ethyl)-5-fluorophenyl]ethyl 2 furylmethylcarbamate], the pIC50 is 7.00 to 7.30.

Turning to `C[C@H](c1ccccc1Cn1ccnc1)N(c1cc(F)ccc1F)S(=O)(=O)c1ccc(Cl)cc1` [Example 438, 4-chloro-N-(2,5-difluorophenyl)-N-{(1R)-1-[2-(1H-imidazol-1-ylmethyl)phenyl]ethyl}benzenesulfonamide hydrochloride], the pIC50 is 7.00 to 7.30.

The assay is the same for the next values; noted with them: transfected H4 cells stably expressing APP; approximately 16 hours incubation; amyloid β in medium by ELISA; Table B; read-out: ACTIVITY (IC50, inhibition of amyloid β production).
In the case of `COC(=O)CCS(=O)(=O)Cc1cc(F)ccc1[C@@H](C)N(c1cc(F)ccc1F)S(=O)(=O)c1ccc(Cl)cc1` [Example 466, Methyl 3-{[2-((1R)-1-{[(4-chlorophenyl)sulfonyl]-2,5-difluoroanilino}ethyl)-5-fluorobenzyl]sulfonyl}propanoate], the pIC50 was 7.00 to 7.30.

On to `C[C@H](c1ccc(F)cc1CS(=O)(=O)CCC(=O)O)N(c1cc(F)ccc1F)S(=O)(=O)c1ccc(Cl)cc1` [Example 467, 3-{[2-((1R)-1-{[(4-chlorophenyl)sulfonyl]-2,5-difluoroanilino}ethyl)-5-fluorobenzyl]sulfonyl}propanoic Acid], for which the pIC50 was 7.00 to 7.30.

For `COC(=O)[C@H](CSCc1cc(F)ccc1[C@@H](C)N(c1cc(F)ccc1F)S(=O)(=O)c1ccc(Cl)cc1)NC(=O)OC(C)(C)C` [Example 468, Methyl (2R)-2-[(tert-butoxycarbonyl)amino]-3-{[2-((1R)-1-{[(4-chlorophenyl)sulfonyl]-2,5-difluoroanilino}ethyl)-5-fluorobenzyl]sulfanyl}propanoate], the pIC50 is 7.00 to 7.30.

For `COC(=O)[C@H](CS(=O)(=O)Cc1cc(F)ccc1[C@@H](C)N(c1cc(F)ccc1F)S(=O)(=O)c1ccc(Cl)cc1)NC(=O)OC(C)(C)C` [Example 469, Methyl (2R)-2-[(tert-butoxycarbonyl)amino]-3-{[2-((1R)-1-{[(4-chlorophenyl)sulfonyl]-2,5-difluoroanilino}ethyl)-5-fluorobenzyl]sulfonyl}propanoate], the pIC50 was 7.00 to 7.30.

Consider `COC(=O)C(N)CS(=O)(=O)Cc1cc(F)ccc1[C@@H](C)N(c1cc(F)ccc1F)S(=O)(=O)c1ccc(Cl)cc1` (stereo partly drawn) [Example 470, Methyl 2-amino-3-{[2-(1R)-1-{[(4-chlorophenyl)sulfonyl]-2,5-difluoroanilino}ethyl)-5-fluorobenzyl]sulfonyl}propanoate Hydrochloride], for which the pIC50 is 7.00 to 7.30.

In the case of `COC(=O)[C@@H](CS(=O)(=O)Cc1cc(F)ccc1[C@@H](C)N(c1cc(F)ccc1F)S(=O)(=O)c1ccc(Cl)cc1)NC(=O)OC(C)(C)C` [Example 471, Methyl (2S)-2-[(tert-butoxycarbonyl)amino]-3-{[2-((1R)-1-{[(4-chlorophenyl)sulfonyl]-2,5-difluoroanilino}ethyl)-5-fluorobenzyl]sulfonyl}propanoate], the pIC50 was 7.00 to 7.30.

For the compound `COC(=O)CCSCCc1cc(F)ccc1[C@@H](C)N(c1cc(F)ccc1F)S(=O)(=O)c1ccc(Cl)cc1` [Example 473], the pIC50 was 7.00 to 7.30.

`COC(=O)CCS(=O)(=O)CCc1cc(F)ccc1[C@@H](C)N(c1cc(F)ccc1F)S(=O)(=O)c1ccc(Cl)cc1` [Example 474, Methyl 3-({2-[2-((1R)-1-{[(4-chlorophenyl)sulfonyl]-2,5-difluoroanilino}ethyl)-5-fluorophenyl]ethyl}sulfonyl)propanoate]: the pIC50 was 6.30 to 7.00.

Turning to `C[C@H](c1ccc(F)cc1CCS(=O)(=O)CCC(=O)O)N(c1cc(F)ccc1F)S(=O)(=O)c1ccc(Cl)cc1` [Example 475, 3-({2-[2-((1R)-1-{[(4-chloro-phenyl)sulfonyl]-2,5-difluoroanilino}ethyl)-5-fluorophenyl]ethyl}sulfonyl)propanoic Acid], the pIC50 is 6.30 to 7.00.

Consider `COC(=O)C[S+]([O-])CCc1cc(F)ccc1[C@@H](C)N(c1cc(F)ccc1F)S(=O)(=O)c1ccc(Cl)cc1` (stereo partly drawn) [Example 476, Methyl ({2-[2-((1R)-1-{[(4-chlorophenyl)sulfonyl]-2,5-difluoroanilino}ethyl)-5-fluorophenyl]ethyl}sulfinyl)acetate], for which the pIC50 is 6.30 to 7.00.

Regarding `COC(=O)CSCCc1cc(F)ccc1[C@@H](C)N(c1cc(F)ccc1F)S(=O)(=O)c1ccc(Cl)cc1` [Example 477, Methyl ({2-[2-((1R)-1-[[(4-chlorophenyl)sulfonyl]-2,5-difluoroanilino}ethyl)-5-fluorophenyl]ethyl}sulfanyl)acetate], the pIC50 was 6.30 to 7.00.
